According to US20260284048A1, “INHIBITOR OF MEGAKARYOCYTE DIFFERENTIATION AND MATURATION” (OTSUKA PHARMACEUTICAL CO., LTD., priority 2023, published 2026):

Columns and labels:
Format in all cases: cell-based
[1] = tested on: Bone marrow-derived CD34-positive cells (CD41-positive megakaryocytes); test: Inhibition of differentiation from CD34-positive cells toward megakaryocytes (HemaTox Megakaryocyte Kit, flow cytometry); details: 240 h, cultured 10 days, three donors
Procedure: (§1) It was studied whether Compound 1 inhibits the differentiation from CD34-positive cells toward megakaryocytes. Bone marrow-derived CD34-positive cells were cultured for 10 days in the presence and absence of Compound 1 in megakaryocyte differentiation medium (HemaTox™ Megakaryocyte Kit, STEMCELL™ Technologies) according to the kit's instruction. The number of the CD41-positive megakaryocytes was counted by flow cytometry and the cell viability relative to the untreated cell group was calculated. The test was conducted three times using CD34-positive cells derived from different donors, and the cell viability was determined with the control as 100%.

[2] = tested on: Bone marrow-derived CD34-positive cells (CD13-positive and CD15-positive myeloid cells); test: Differentiation from CD34-positive cells toward myeloid cells (HemaTox Myeloid Kit, flow cytometry); details: cultured 7 days, two donors, FIG. 5
Procedure: as §1, with “toward myeloid cells.” for “toward megakaryocytes.”, “for 7” for “for 10”, “in myeloid” for “in the presence and absence of Compound 1 in megakaryocyte”, “(HemaTox™ Myeloid” for “(HemaTox™ Megakaryocyte”, “the CD13-positive and CD15-positive myeloid cells” for “the CD41-positive megakaryocytes”, “conducted twice” for “conducted three times”

[3] = tested on: Bone marrow-derived CD34-positive cells (CD71-positive and CD235-positive erythroid cells); test: Differentiation from CD34-positive cells toward erythroblasts (HemaTox Erythroid Kit, flow cytometry); details: concentrations of 100 nmol/L or lower, cultured 7 days, two donors, FIG. 4
Procedure: It was studied whether Compound 1 inhibits the differentiation from CD34-positive cells toward erythroblasts. Bone marrow-derived CD34-positive cells were cultured for 7 days in erythroid differentiation medium (HemaTox™ Erythroid Kit, STEMCELL™ Technologies) according to the kit's instruction. The number of the CD71-positive and CD235-positive erythroid cells were counted by flow cytometry and the cell viability relative to the untreated cell group was calculated. The test was conducted twice using CD34-positive cells derived from different donors, and the cell viability was determined with the control as 100%.

[4] = tested on: SLFN12 protein; test: Increase of SLFN12 protein (Western blot analysis); details: 1 μmol/L, 16 hours, FIG. 2
Procedure: In order to examine the effect of Compound 1 on the protein level of SLFN12, Western blot analysis was performed. PFSK-1, HeLa, or U-87 MG cell lines were treated with Compound 1 (1 μmol/L) for 16 hours, and SLFN12 protein in each test sample was detected.

[5] = tested on: PDE3A and SLFN12; test: Complex formation of PDE3A and SLFN12 (immunoprecipitation using anti-PDE3A antibody); details: PFSK-1 and HeLa cell lines, 1 μmol/L, 16 hours, FIG. 1
Procedure: In order to examine whether Compound 1 forms a complex between PDE3A and SLFN12, a binding confirmation experiment using immunoprecipitation was performed. PFSK-1 and HeLa which are cell lines expressing PDE3A and SLFN12 were treated with Compound 1 (1 μmol/L) for 16 hours, and then immunoprecipitated using anti-PDE3A antibody.

SMILES: C[C@@H]1CC(=O)NN=C1c1ccc(OCC(C)(C)O)c(F)c1F [Compound 1, (R)-6-(2,3-difluoro-4-(2-hydroxy-2-methylpropoxy)phenyl)-5-methyl-4,5-dihydropyridazin-3(2H)-one]
- minimal effective concentration ([1]; FIG. 3, read-out: concentration that significantly decreased the number of CD41-positive megakaryocytes): ≥ 0.003 µM
- IC50 ([1]; control as 100%, 95% confidence interval 10.3-23.7 nmol/L, read-out: 50% inhibitory concentration (IC50), number of CD41-positive megakaryocytes): 17 nM
- effect on differentiation from hematopoietic stem cells toward myeloid cells ([2]; 30 nmol/L): inhibited
- effect on differentiation from hematopoietic stem cells toward myeloid cells ([2]; 100 nmol/L): no significant difference
- concentration dependence of the effect on differentiation toward myeloid cells [2]: no concentration-dependent inhibitory effect
- effect on differentiation from hematopoietic stem cells toward erythroid cells [3]: did not affect
- SLFN12 protein level compared to untreated ([4]; PFSK-1 or HeLa (highly expresses PDE3A)): increased SLFN12 protein levels were observed
- SLFN12 protein level compared to untreated ([4]; U-87 MG (hardly expresses PDE3A)): no significant, Compound 1-dependent increase in SLFN12 protein level was observed
- coprecipitation of SLFN12 with PDE3A (complex formation) [5]: coprecipitation with SLFN12 was confirmed
